Structures can show the parent of a compound that is named as a salt.
Tested on: CYR61 gene expression
Assay: CYR61 gene expression in ARPE-19/HPV16 cells treated for 24 hours, Affymetrix probe sets
Assay type: cell-based, human
Set-up: amplitude: scale not given here
Settings: 10 uM; for Fold (CYR61 Downregulation): versus vehicle
Procedure: In a study leading to embodiments of the invention, a human retinal pigment epithelial cell line (ARPE-19/HPV16) was separately treated with an anthracycline (doxorubicin or daunorubicin), a statin (simvastatin or lovastatin), or vehicle for 24 hours and gene expression for […] probe sets covering 12,490 genes was generated using an Affymetrix instrument. The effects of these compounds on the expression of CYR61 are shown below in Table 1.

Row | SMILES | Rank (probe 201289_at) | amplitude (probe 201289_at) | Fold (CYR61 Downregulation) (probe 201289_at) | Rank (probe 210764_s_at) | amplitude (probe 210764_s_at) | Fold (CYR61 Downregulation) (probe 210764_s_at)
1 | COc1cccc2c1C(=O)c1c(O)c3c(c(O)c1C2=O)C[C@@](O)(C(C)=O)C[C@@H]3O[C@H]1C[C@H](N)[C@H](O)[C@H](C)O1 [Daunorubicin HCl] | 22278 | −1.921 | −49.81 | 22239 | −1.8272 | −22.15
2 | COc1cccc2c1C(=O)c1c(O)c3c(c(O)c1C2=O)C[C@@](O)(C(=O)CO)C[C@@H]3O[C@H]1C[C@H](N)[C@H](O)[C@H](C)O1 [Doxorubicin HCl] | 22282 | −1.967 | −118.5 | 22272 | −1.925 | −52.26
3 | CC(=O)[C@]1(O)Cc2c(O)c3c(c(O)c2[C@@H](O[C@H]2C[C@H](N)[C@H](O)[C@H](C)O2)C1)C(=O)c1ccccc1C3=O [Idarubicin HCl] | 22273 | −1.899 | −38.72 | 22267 | −1.875 | −31.13
4 | CC[C@H](C)C(=O)O[C@H]1C[C@@H](C)C=C2C=C[C@H](C)[C@H](CC[C@@H]3C[C@@H](O)CC(=O)O3)[C@H]21 [Lovastatin] | 22271 | −1.412 | −5.799 | 22264 | −1.297 | −4.687
5 | CCC(C)(C)C(=O)O[C@H]1C[C@@H](C)C=C2C=C[C@H](C)[C@H](CC[C@@H]3C[C@@H](O)CC(=O)O3)[C@H]21 [Simvastatin] | 22255 | −1.378 | −5.428 | 22262 | −1.3931 | −5.591

— patent US20220401464A1, “TREATMENT OF CYR61- AND VEGF-MEDIATED CONDITIONS” (VANDA PHARMACEUTICALS INC., priority 2013, published 2022)
